Laboratory results taken from PubChem BioAssay (NCI).
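1) Cells in 96-well plates. 2) Compound, 48 h, 5 concentrations. 3) Linear interpolation between surrounding doses. 4) Unreached endpoint = highest concentration. Abbreviation: GI50, concentration required for 50% inhibition of growth. At the TGI there is no net growth.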 Where a SMILES comes first, the peptide text is derived from it. The star is where a group is joined. Fmoc = O=C(OCC1c2ccccc2-c2ccccc21)*; Boc = CC(C)(C)OC(=O)*

Experiments:
Test in all cases: NCI-60 cell line screen, 48 h
SK-MEL-5 melanoma = test system: SK-MEL-5 melanoma
BT-549 breast = test system: BT-549 breast
HOP-92 NSCLC = test system: HOP-92 NSCLC
SN12C renal = test system: SN12C renal
K-562 leukemia = test system: K-562 leukemia
MDA-MB-435 = test system: MDA-MB-435
HS 578T breast = test system: HS 578T breast
UACC-257 melanoma = test system: UACC-257 melanoma
NCI-H226 lung = test system: NCI-H226 lung
CCRF-CEM leukemia = test system: CCRF-CEM leukemia

Structure (SMILES) | TGI (SK-MEL-5 melanoma) [µM] | TGI (BT-549 breast) [µM] | TGI (HOP-92 NSCLC) [µM] | TGI (SN12C renal) [µM] | TGI (K-562 leukemia) [µM] | TGI (MDA-MB-435) [µM] | TGI (HS 578T breast) [µM] | TGI (UACC-257 melanoma) [µM] | TGI (NCI-H226 lung) [µM] | TGI (CCRF-CEM leukemia) [µM] | GI50 (SK-MEL-5 melanoma) [µM] | GI50 (BT-549 breast) [µM] | GI50 (HOP-92 NSCLC) [µM] | GI50 (SN12C renal) [µM] | GI50 (K-562 leukemia) [µM] | GI50 (MDA-MB-435) [µM] | GI50 (HS 578T breast) [µM] | GI50 (UACC-257 melanoma) [µM] | GI50 (NCI-H226 lung) [µM] | GI50 (CCRF-CEM leukemia) [µM]
CCOC(=O)C(Cl)(NC(=O)c1c(F)c(F)c(F)c(F)c1F)C(F)(F)F (stereo not given) | > 100 | > 100 | 75.3 | > 100 | > 100 | > 100 | > 100 | > 100 | > 100 | > 100 | – | – | – | – | – | – | – | – | – | –
O=C1/C(=C/c2ccc(Cl)cc2)N=C(c2ccccc2)N1CCc1cccs1 | 33.2 | > 100 | 38.5 | > 100 | > 100 | > 100 | > 100 | > 100 | > 100 | > 100 | 15.6 | 22.1 | 3.49 | 21.1 | 22.9 | 28 | 20.3 | 36 | 21.2 | 22.7
CC(C)(C)OC(=O)NCCCCC(NC(=O)OCC1c2ccccc2-c2ccccc21)C(=O)N1CCCC1C(=O)NCC(N)=O (stereo not drawn) (Fmoc-Lys(Boc)-Pro-Gly-NH2; configuration not given here) | > 100 | > 100 | 48.2 | 30.2 | > 100 | 84.8 | > 100 | > 100 | > 100 | > 100 | – | – | – | – | – | – | – | – | – | –
COC(=O)/C=C/c1ccc2c(c1)CC1(C2)Cc2cc3c(cc2C1=O)CCC3 (stereo not given) | > 100 | > 100 | > 100 | > 100 | > 100 | > 100 | 78.9 | > 100 | > 100 | > 100 | – | – | – | – | – | – | – | – | – | –
NCCCNC1(c2cc3ccccc3s2)CCCCC1 | 3.31 | 27.8 | 25.5 | 22.8 | 5.38 | 4.48 | 30.2 | 3.23 | 33.3 | 13 | – | – | – | – | – | – | – | – | – | –
O=S(=O)(O)ON=C1c2ccccc2-c2ccccc21 | > 100 | > 100 | > 100 | > 100 | > 100 | > 100 | > 100 | > 100 | > 100 | > 100 | – | – | – | – | – | – | – | – | – | –
Nc1nc(N)c2ncn(Cc3ccccc3CCl)c2n1 | > 100 | > 100 | > 100 | > 100 | > 100 | > 100 | > 100 | > 100 | > 100 | > 100 | – | – | – | – | – | – | – | – | – | –
